Measurements published in patent publication US11998577B2, “Methods for increasing growth of beneficial bacteria in the gastrointestinal tract” (ABBOTT LABORATORIES, priority 2017, dated 2024).

Experiments:
L. fermentum = experiment: Fecal fermentation, quantification of L. fermentum species by real-time PCR; assay type: cell-based, Lactobacillus fermentum; conditions: faecal slurry fermentation; detection limit 1.00·103CFU/g slurry
Experimental: (§1) Example 2: A series of experiments were carried out to determine the effects of providing 2′-FL, lutein, and RRR-alpha-tocopherol on bacterial growth. Fecal fermentations were carried out by using 3 ml fermentations in 10 ml fermentor (24 multi-well plate; μ-24 Bioreactor, Applikon Biotechnology). Fresh faecal sample came from a formula (without prebiotic or probiotic)-fed baby. Stools were vacuum stored in refrigerated conditions until the fermentation. Fresh feces were weighed and dissolved in Mc Bain and MacFarlane medium (1:5) to hydrate them. Three milliliters of the homogenized mixture (faecal slurry) were inoculated in each fermenter. In each case, prebiotic (2′-FL), RRR-alpha-tocopherol (vitamin E) and lutein were added at different dosage (Table 4). […] Anaerobiosis, temperature (37° C.) and pH levels (pH 5.5) were maintained during the assay and monitored throughout the study. […] For quantification, previous extracted DNA was used. Real-time PCR was used to quantify genera Bifidobacterium and Lactobacillus, and B. longum and L. fermentum species. In the case of genus Bifidobacterium and B. longum, quantification was performed with primers described by Matsuki et al.1. Lactobacillus group was quantified with primers described by Byun et al.2. Lactobacillus fermentum was quantified with the aid of primers designed by Matsuda et al.3 Nucleotide sequences of primers are listed in Table 5. […]

B. longum = experiment: Fecal fermentation, quantification of B. longum species by real-time PCR; assay type: cell-based, Bifidobacterium longum; conditions: faecal slurry fermentation; 2′-FL at both daily (DD) and per intake (DI) doses; p<0.05 vs product (DD) and blend (DI)
Experimental: as §1

genus Bifidobacterium = experiment: Fecal fermentation, quantification of genus Bifidobacterium by real-time PCR; assay type: cell-based; conditions: faecal slurry of formula-fed baby, 37° C., pH 5.5, anaerobic; 2′-FL at both daily (DD) and per intake (DI) doses; p<0.05 vs blend (DD) and blend (DI)
Experimental: as §1

Compound: C[C@@H]1O[C@@H](O[C@H]2[C@H](O[C@H]3[C@H](O)[C@@H](O)C(O)O[C@@H]3CO)O[C@H](CO)[C@H](O)[C@@H]2O)[C@@H](O)[C@H](O)[C@@H]1O (stereo partly drawn) [2′-FL, 2′-fucosyllactose]
- L. fermentum detection (real-time PCR, FIG. 4) (L. fermentum): reached detectable values
- B. longum numbers (real-time PCR, FIG. 2) (B. longum): significant higher B. longum numbers
- bifidobacteria numbers (real-time PCR, FIG. 1) (genus Bifidobacterium): significant higher bifidobacteria numbers
